{
  "source": "patent US20190290772A1",
  "about": "(published 2019)",
  "key": {"[1]": {"biological_target": "human glucagon receptor (GcgR) (Homo sapiens, UniProt P47871)", "test": "Human glucagon receptor activation (Table 1)", "format": "cell-based", "conditions": "read-out: EC50 (nM) hGcgR"}, "[2]": {"tested_on": "diet-induced obese (DIO) mice", "test": "Weight-lowering and metabolic pharmacology in diet-induced obese mice on HFHSD", "format": "in vivo", "conditions": "for effect on body weight: DIO mice on HFHSD, equimolar doses, daily s.c. (FIG. 5A); for food intake: DIO mice (FIG. 5C)", "protocol": "(§1) For pharmacology studies on energy metabolism in obese mice (DIO mice), male C57Bl/6j mice (Jackson Laboratories) were fed a diabetogenic diet (Research Diets D12331), which is a high-sucrose diet with 58% kcal from fat 25.5% kcal from carbohydrates, and 16.4% kcal from protein. Dietary challenges began at 8 weeks of age. HFHSD mice were single- or group-housed on a 12:12-h light-dark cycle at 22° C. with free access to food and water. Mice were maintained under these conditions for a minimum of 16 weeks before initiation of pharmacological studies and were between the ages of 6 months to 12 months old. All injections and tests were performed during the light cycle. Compounds were administered in a vehicle of 1% Tween-80 and 1% DMSO and were given by daily subcutaneous injections at the indicated doses at a volume of 5 μl per g body weight. Mice were randomized and evenly distributed to test groups according to body weight and body composition. If ex vivo molecular biology/histology/biochemistry analyses were performed, the entire group of mice for each treatment was analyzed and scored in a blinded fashion.\nCompounds were administered by repeated subcutaneous injections in the middle of the light phase at the indicated doses with the indicated durations. Co-administration of compounds was administered by single formulated injections. Body weights and food intake were measured every day or every other day after the first injection. All studies with wild-type mice were performed with a group size of n=8 or greater using mice on a C57B16j background.\nFor assessment of intraperitoneal glucose tolerance during chronic treatment, the challenge tests were performed at least 24 hours after the last administration of compounds. The investigators were not blinded to group allocation during the in vivo experiments or to the assessment of longitudinal endpoints. All rodent studies were approved by and performed according to the guidelines of the Institutional Animal Care and Use Committee of the Helmholtz Center Munich, University of Cincinnati, Universite de Lyon, and in accordance with guidelines of the Association for the Assessment and Accreditation of Laboratory and Animal Care (AAALAC # Unit Number: 001057) and appropriate federal, state and local guidelines, respectively.\nWhole-body composition (fat and lean mass) was measured using nuclear magnetic resonance technology (EchoMRI)."}, "[3]": {"tested_on": "diet-induced obese (DIO) mice", "test": "Heart weight / cardiac hypertrophy in DIO mice", "conditions": "mouse, in vivo", "experimental": "For pharmacology studies on energy metabolism in obese mice (DIO mice), male C57Bl/6j mice (Jackson Laboratories) were fed a diabetogenic diet (Research Diets D12331), which is a high-sucrose diet with 58% kcal from fat 25.5% kcal from carbohydrates, and 16.4% kcal from protein. Dietary challenges began at 8 weeks of age. HFHSD mice were single- or group-housed on a 12:12-h light-dark cycle at 22° C. with free access to food and water. Mice were maintained under these conditions for a minimum of 16 weeks before initiation of pharmacological studies and were between the ages of 6 months to 12 months old. All injections and tests were performed during the light cycle. Compounds were administered in a vehicle of 1% Tween-80 and 1% DMSO and were given by daily subcutaneous injections at the indicated doses at a volume of 5 μl per g body weight. Mice were randomized and evenly distributed to test groups according to body weight and body composition. If ex vivo molecular biology/histology/biochemistry analyses were performed, the entire group of mice for each treatment was analyzed and scored in a blinded fashion. Compounds were administered by repeated subcutaneous injections in the middle of the light phase at the indicated doses with the indicated durations. […] Body weights and food intake were measured every day or every other day after the first injection. […]"}, "[4]": {"tested_on": "diet-induced obese (DIO) mice", "test": "Indirect calorimetry in DIO mice (energy expenditure, RER, home-cage activity, food intake)", "format": "in vivo", "protocol": "as §1, with “fashion. Energy intake, energy expenditure, respiratory exchange ratio, and home-cage activity were assessed using a combined indirect calorimetry system (TSE Systems). O2 consumption and CO2 production were measured every 10 min for a total of up to 160 h (after 24 h of adaptation) to determine the respiratory quotient and energy expenditure after an initial treatment regimen. Food intake was determined continuously for the same time as the indirect calorimetry assessments by integration of scales into the sealed cage environment. Home-cage locomotor activity was determined using a multidimensional infrared light beam system with beams scanning the bottom and top levels of the cage, and activity being expressed as beam breaks.” for “fashion.”"}},
  "data": [
    {"smiles": "CC[C@H](C)[C@H](NC(=O)[C@H](Cc1ccccc1)NC(=O)[C@H](CCC(=O)O)NC(=O)[C@H](CCCCN)NC(=O)[C@H](C)NC(=O)[C@H](C)NC(=O)[C@H](CCC(N)=O)NC(=O)[C@H](CCC(=O)O)NC(=O)[C@H](CCC(=O)O)NC(=O)[C@H](CC(C)C)NC(=O)[C@H](Cc1ccc(O)cc1)NC(=O)[C@H](CO)NC(=O)[C@H](CO)NC(=O)[C@@H](NC(=O)[C@H](CC(=O)O)NC(=O)[C@H](CO)NC(=O)[C@@H](NC(=O)[C@H](Cc1ccccc1)NC(=O)[C@@H](NC(=O)CNC(=O)[C@H](CCC(=O)O)NC(=O)C(C)(C)NC(=O)[C@@H](N)Cc1c[nH]cn1)[C@@H](C)O)[C@@H](C)O)C(C)C)C(=O)N[C@@H](C)C(=O)N[C@@H](Cc1c[nH]c2ccccc12)C(=O)N[C@@H](CC(C)C)C(=O)N[C@H](C(=O)N[C@@H](CCCCN)C(=O)NCC(=O)NCC(=O)N1CCC[C@H]1C(=O)N[C@@H](CO)C(=O)N[C@@H](CO)C(=O)NCC(=O)N[C@@H](C)C(=O)N1CCC[C@H]1C(=O)N1CCC[C@H]1C(=O)N1CCC[C@H]1C(=O)N[C@@H](CO)C(=O)N[C@@H](CCCCN)C(N)=O)C(C)C", "note": "[IUB48]", "values": [
      {"measurement": "EC50", "setting": "[1]", "result": "> 100", "unit": "nM"},
      {"measurement": "effect on body weight", "setting": "[2]", "result": "minimal impact on body weight"}
    ]},
    {"smiles": "CC[C@H](C)[C@H](NC(=O)[C@H](Cc1ccccc1)NC(=O)[C@H](CCC(=O)O)NC(=O)[C@H](CCCCN)NC(=O)[C@H](C)NC(=O)[C@H](C)NC(=O)[C@H](CCC(N)=O)NC(=O)[C@H](CCC(=O)O)NC(=O)[C@H](CCC(=O)O)NC(=O)[C@H](CC(C)C)NC(=O)[C@H](Cc1ccc(O)cc1)NC(=O)[C@H](CO)NC(=O)[C@H](CO)NC(=O)[C@@H](NC(=O)[C@H](CC(=O)O)NC(=O)[C@H](CO)NC(=O)[C@@H](NC(=O)[C@H](Cc1ccccc1)NC(=O)[C@@H](NC(=O)CNC(=O)[C@H](CCC(=O)O)NC(=O)C(C)(C)NC(=O)[C@@H](N)Cc1c[nH]cn1)[C@@H](C)O)[C@@H](C)O)C(C)C)C(=O)N[C@@H](C)C(=O)N[C@@H](Cc1c[nH]c2ccccc12)C(=O)N[C@@H](CC(C)C)C(=O)N[C@H](C(=O)N[C@@H](CCCCN)C(=O)NCC(=O)NCC(=O)N1CCC[C@H]1C(=O)N[C@@H](CO)C(=O)N[C@@H](CO)C(=O)NCC(=O)N[C@@H](C)C(=O)N1CCC[C@H]1C(=O)N1CCC[C@H]1C(=O)N1CCC[C@H]1C(=O)N[C@@H](CO)C(=O)N[C@@H](CCCCNC(=O)CC[C@H](NC(=O)[C@@H](N)Cc1cc(I)c(Oc2ccc(O)c(I)c2)c(I)c1)C(=O)O)C(N)=O)C(C)C", "note": "[IUB686, IUB48-(gE-T3-NH2)-amide]", "values": [
      {"measurement": "EC50", "setting": "[1]", "result": "> 100", "unit": "nM"},
      {"measurement": "heart weight / cardiac hypertrophy", "setting": "[3]", "result": "did not increase raw heart weight"}
    ]},
    {"smiles": "CC[C@H](C)[C@H](NC(=O)[C@H](Cc1ccccc1)NC(=O)[C@H](CCC(=O)O)NC(=O)[C@H](CCCCN)NC(=O)[C@H](C)NC(=O)[C@H](C)NC(=O)[C@H](CCC(N)=O)NC(=O)[C@H](CCC(=O)O)NC(=O)[C@H](CCC(=O)O)NC(=O)[C@H](CC(C)C)NC(=O)[C@H](Cc1ccc(O)cc1)NC(=O)[C@H](CO)NC(=O)[C@H](CO)NC(=O)[C@@H](NC(=O)[C@H](CC(=O)O)NC(=O)[C@H](CO)NC(=O)[C@@H](NC(=O)[C@H](Cc1ccccc1)NC(=O)[C@@H](NC(=O)CNC(=O)[C@H](CCC(=O)O)NC(=O)C(C)(C)NC(=O)[C@@H](N)Cc1c[nH]cn1)[C@@H](C)O)[C@@H](C)O)C(C)C)C(=O)N[C@@H](C)C(=O)N[C@@H](Cc1c[nH]c2ccccc12)C(=O)N[C@@H](CC(C)C)C(=O)N[C@H](C(=O)N[C@@H](CCCCN)C(=O)NCC(=O)NCC(=O)N1CCC[C@H]1C(=O)N[C@@H](CO)C(=O)N[C@@H](CO)C(=O)NCC(=O)N[C@@H](C)C(=O)N1CCC[C@H]1C(=O)N1CCC[C@H]1C(=O)N1CCC[C@H]1C(=O)N[C@@H](CO)C(=O)N[C@@H](CCCCNC(=O)CCC(=O)N[C@@H](Cc1cc(I)c(Oc2ccc(O)c(I)c2)c(I)c1)C(=O)O)C(N)=O)C(C)C", "note": "[IUB687, IUB48-(Suc-T3-OH)-amide]", "values": [
      {"measurement": "EC50", "setting": "[1]", "result": "> 100", "unit": "nM"},
      {"measurement": "food intake", "setting": "[2]", "result": "no reductions in food intake"},
      {"measurement": "effect on body weight", "setting": "[2]", "result": "significantly lowered body weight in a dose-dependent manner"},
      {"measurement": "absolute decrease in body weight from baseline", "setting": "[2]; DIO mice, 100 nmoles/kg, daily subcutaneous treatment, after a week (FIG. 5A)", "result": 11, "unit": "%"}
    ]},
    {"smiles": "N[C@@H](Cc1cc(I)c(Oc2ccc(O)c(I)c2)c(I)c1)C(=O)O", "note": "[Peptide T3, Triiodothyronine]", "values": [
      {"measurement": "food intake during calorimetry", "setting": "[4]; DIO mice (FIG. 6D)", "result": "hyperphagia"},
      {"measurement": "body weight loss during calorimetry study", "setting": "[4]; DIO mice (FIG. 6E)", "result": "less body weight loss"},
      {"measurement": "home cage / ambulatory activity", "setting": "[4]; DIO mice (FIG. 6F)", "result": "significantly increased home cage activity"},
      {"measurement": "whole-body energy expenditure", "setting": "[4]; DIO mice, indirect calorimetry (FIG. 6C)", "result": "substantially increased whole-body energy expenditure"},
      {"measurement": "food intake", "setting": "[2]", "result": "increased"},
      {"measurement": "effect on body weight", "setting": "[2]", "result": "minimal impact on body weight"},
      {"measurement": "glucose tolerance", "setting": "[2]; DIO mice, higher dose, equimolar (FIG. 5D)", "result": "improved glycemic control"}
    ]}
  ]
}
